{"source": "patent US9579356B2", "about": "“Dietary supplements for reducing cholesterol levels” (RELIV INTERNATIONAL INC., priority 2006, dated 2017)", "origin": "cited, not measured here", "key": {"[1]": {"system": "rats which were fed a high cholesterol diet"}, "rats": {"system": "rats", "settings": "dietary supplementation"}, "[2]": {"system": "patients with LDL-cholesterol levels exceeding 160 mg/dl", "settings": "after eight weeks; policosanol 10 mg/day, lovastatin 20 mg/day, simvastatin 10 mg/day"}, "[3]": {"system": "individuals having initial total cholesterol levels exceeding 260 mg/dL", "settings": "15 grams daily, three weeks"}, "[4]": {"system": "individuals having total cholesterol levels ranging from 210 to 326 mg/dL", "settings": "3.5 g daily, after two weeks"}}}
{"compound": "Oc1ccc(C=Cc2cc(O)cc(O)c2)cc1", "note": "[Resveratrol]", "values": [{"measurement": "leukotriene production", "setting": "human neutrophils", "value": "induce"}, {"measurement": "cholesterol and triglyceride liver deposition", "setting": "[1]", "value": "inhibited"}, {"measurement": "low-density lipoprotein (LDL) cholesterol levels", "setting": "[1]", "value": "lowered"}, {"measurement": "ratio of total cholesterol to high-density lipoprotein (HDL) cholesterol", "setting": "[1]", "value": "reduced"}, {"measurement": "serum triglyceride levels", "setting": "[1]", "value": "lowered"}]}
{"compound": "O=C([O-])[C@@H](O)[C@@H](O)[C@H](O)[C@@H](O)C(=O)[O-].[Ca+2]", "note": "[calcium D-glucarate]", "values": [{"measurement": "lowering VLDL cholesterol", "setting": "rats", "value": "did not demonstrate similar effects"}, {"measurement": "lowering total triglycerides", "setting": "rats", "value": "did not demonstrate similar effects"}]}
{"compound": "CC[C@H](C)C(=O)O[C@H]1C[C@@H](C)C=C2C=C[C@H](C)[C@H](CC[C@@H]3C[C@@H](O)CC(=O)O3)[C@H]21", "note": "[lovastatin]", "values": [{"measurement": "reduced LDL-cholesterol levels", "setting": "[2]", "value": "about 22%"}]}
{"compound": "O=C(O)[C@@H](O)[C@@H](O)[C@H](O)[C@@H](O)C(=O)[O-].[K+]", "note": "[potassium hydrogen D-glucarate]", "values": [{"measurement": "lowering VLDL cholesterol", "setting": "rats", "value": "effective"}, {"measurement": "lowering total triglycerides", "setting": "rats", "value": "effective"}]}
{"compound": "beta-glucan", "values": [{"measurement": "reduced LDL cholesterol", "setting": "[3]", "value": "about 23%"}, {"measurement": "reduced total cholesterol", "setting": "[3]", "value": "about 19%"}, {"measurement": "reduction in total cholesterol", "setting": "[4]", "value": 5.4, "unit": "%"}]}
